Read-outs that look alike come from different tables or passages of the source.
What was measured:
human Topo I = target: T1, human Topo I (Homo sapiens, UniProt P11387); assay: Human Topoisomerase I relaxation high-throughput plate assay (fluorescent DNA stain); type: biochemical
T1 construct: gene TOP1
T1 sequence (P11387 2-765): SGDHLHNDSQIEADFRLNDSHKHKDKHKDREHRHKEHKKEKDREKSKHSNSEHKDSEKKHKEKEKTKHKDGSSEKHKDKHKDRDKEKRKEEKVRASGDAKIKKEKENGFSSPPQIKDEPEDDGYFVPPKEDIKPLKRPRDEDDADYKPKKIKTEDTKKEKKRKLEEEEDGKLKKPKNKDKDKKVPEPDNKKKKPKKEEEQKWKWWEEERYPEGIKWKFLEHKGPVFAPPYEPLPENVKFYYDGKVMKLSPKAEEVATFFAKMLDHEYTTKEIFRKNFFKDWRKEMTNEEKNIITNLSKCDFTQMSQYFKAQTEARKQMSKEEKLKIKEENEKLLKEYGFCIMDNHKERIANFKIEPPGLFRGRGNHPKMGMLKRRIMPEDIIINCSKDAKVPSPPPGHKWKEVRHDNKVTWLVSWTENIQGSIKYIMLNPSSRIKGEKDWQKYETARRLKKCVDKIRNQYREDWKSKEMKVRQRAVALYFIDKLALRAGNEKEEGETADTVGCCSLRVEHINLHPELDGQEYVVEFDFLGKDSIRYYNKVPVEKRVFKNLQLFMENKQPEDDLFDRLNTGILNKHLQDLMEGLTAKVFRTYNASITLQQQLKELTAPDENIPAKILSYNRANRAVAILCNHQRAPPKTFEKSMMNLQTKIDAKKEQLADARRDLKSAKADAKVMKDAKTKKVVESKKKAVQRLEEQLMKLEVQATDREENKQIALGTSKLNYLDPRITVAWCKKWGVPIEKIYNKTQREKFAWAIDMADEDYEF

[1] = tested on: nicked decamer 2B (DNA, duplex, nick between T5 and G6) GCGTT/GTCGC/GCGACAACGC; assay: DOSY NMR diffusion; conditions: 25 mM NaCl, 25 mM K3PO4; D2O, pH 6, 298 K; 0.33 mM each; single-point from diffusion coefficients
[2] = tested on: nicked decamer 2B (DNA, duplex, nick between T5 and G6) GCGTT/GTCGC/GCGACAACGC; assay: MALDI-ToF MS; conditions: covalent; alkylated product m/z 7296.2 in reaction mother liquor
[3] = tested on: nicked decamer 2B (DNA, duplex, nick between T5 and G6) GCGTT/GTCGC/GCGACAACGC; assay: NOESY/TOCSY NMR; conditions: 25 mM NaCl, 25 mM K3PO4; D2O, pH 6, 298 K; stacking at the nick, intermolecular NOEs

| Compound | IC50 (human Topo I; read-out: SN38) [µM] | IC50 (human Topo I) [µM] | Ka [1] [mM⁻¹] | binding [2] | binding [3] |
| --- | --- | --- | --- | --- | --- |
| CCc1c2c(nc3ccc(O)cc13)-c1cc3c(c(=O)n1C2)COC(=O)[C@]3(O)CC [SN38, reference compound] | 7.37 ± 7.1 | – | – | – | – |
| CCc1c2c(nc3ccc(O)c(CNCCO)c13)-c1cc3c(c(=O)n1C2)COC(=O)[C@]3(O)CC [compound 1, 7-ethyl-9-[N-(2′-hydroxyethyl)amino]methyl-10-hydroxycamptothecin] | – | 1.73 ± 0.48 | 746.0 | yes | yes |
